Results on three compounds are retold here after ChEMBL document CHEMBL1129013, “Benzopyran selective estrogen receptor modulators (SERMs): Pharmacological effects and structural correlation with raloxifene” (1996).

Molecules are shown by their SMILES.

For test [1], the system named is Rattus norvegicus. The experiment in a line: Reduction in body weight in rat model at dose 0.01 mg/kg (p.o.). Type of test: functional. The conditions noted are these: route oral.
In test [2] the test system is Rattus norvegicus. The test can be described thus: Reduction in body weight in rat model at dose 0.1 mg/kg (p.o.). The class given is functional. The conditions noted are these: route oral.
Test [3] has as its system Rattus norvegicus. The test can be described thus: Reduction in body weight in rat model at dose 1.0 mg/kg (p.o.). The class given is functional. As to conditions: route oral.
Test [4] has as its system Rattus norvegicus. The experiment in a line: Reduction in body weight in rat model at dose 10.0 mg/kg (p.o.). The class given is functional. As to conditions: route oral.
The test system of test [5] is Rattus norvegicus. The test can be described thus: Reduction in serum cholesterol in rat model at dose 0.01 mg/kg (p.o.). The class given is functional, organism-based. Also on record: dose 0.01 mg/kg.
In test [6] the test system is Rattus norvegicus. The experiment in a line: Reduction in serum cholesterol in rat model at dose 0.1 mg/kg (p.o.). Type of test: functional, organism-based. Also on record: dose 0.1 mg/kg.
Test [7] deals with Rattus norvegicus. The experiment in a line: Reduction in serum cholesterol in rat model at dose 1.0 mg/kg (p.o.). The class given is functional, organism-based. Also on record: dose 1 mg/kg.
Test [8] has as its system Rattus norvegicus. The experiment in a line: Reduction in serum cholesterol in rat model at dose 10.0 mg/kg (p.o.). Type of test: functional, organism-based. Also on record: dose 10 mg/kg.
Test [9] has as its system Rattus norvegicus. The test can be described thus: Reduction in uterine weight in rat model at dose 0.01 mg/kg (p.o.). Type of test: functional. As to conditions: route oral.
Test [10] relates to Rattus norvegicus. The experiment in a line: Reduction in uterine weight in rat model at dose 0.1 mg/kg (p.o.). Type of test: functional. As to conditions: route oral.
The subject of test [11] is Rattus norvegicus. The experiment in a line: Reduction in uterine weight in rat model at dose 1.0 mg/kg (p.o.). Type of test: functional. The conditions noted are these: route oral.
Test [12] deals with Rattus norvegicus. The experiment in a line: Reduction in uterine weight in rat model at dose 10.0 mg/kg (p.o.). Type of test: functional. The conditions noted are these: route oral.

Consider `Oc1ccc(C2=Cc3ccc(O)cc3OC2c2ccc(OCCN3CCCCC3)cc2)cc1` (configuration not stated), for which the Body weight in the test on Rattus norvegicus [1] is 334 g; in the test with Rattus norvegicus [2], 314 g; in the test on Rattus norvegicus [3], 287 g; with Rattus norvegicus [4], 284 g. The Serum cholesterol in the test with Rattus norvegicus [5] turned out to be 92.1 mg/dL; in the test on Rattus norvegicus [6], 69.3 mg/dL; in the test on Rattus norvegicus [7], 52.6 mg/dL; in the test on Rattus norvegicus [8], 53 mg/dL. The Uterine weight is on record as 105.7 mg in the test on Rattus norvegicus [9], 132.2 mg in the test with Rattus norvegicus [10], 151 mg in the test with Rattus norvegicus [11] and 124.2 mg in the test with Rattus norvegicus [12].

In the test on Rattus norvegicus [2], `C#C[C@]1(O)CC[C@H]2[C@@H]3CCc4cc(O)ccc4[C@H]3CC[C@@]21C` [ETHINYL ESTRADIOL] had a Body weight of 274 g. The Serum cholesterol in the test on Rattus norvegicus [6] was found to be 37.1 mg/dL. Also, the Uterine weight in the test on Rattus norvegicus [10] came out at 319 mg.

Turning to `CC1=C(c2ccc(O)cc2)C(c2ccc(OCCN3CCCCC3)cc2)Oc2cc(O)ccc21` (configuration not stated), the Body weight in the test with Rattus norvegicus [1] came out at 306 g; with Rattus norvegicus [2], 281 g; in the test with Rattus norvegicus [3] it was 295 g; in the test on Rattus norvegicus [4] it was 302 g. Also, the Serum cholesterol in the test on Rattus norvegicus [5] stood at 79 mg/dL; with Rattus norvegicus [6], 69.8 mg/dL; in the test with Rattus norvegicus [7] it was 42.3 mg/dL; in the test on Rattus norvegicus [8], 57.4 mg/dL. Further, the Uterine weight is listed as 128.2 mg in the test with Rattus norvegicus [9], 160.2 mg in the test on Rattus norvegicus [10], 134.2 mg in the test on Rattus norvegicus [11] and 135.2 mg with Rattus norvegicus [12].
